Measured values reported in ChEMBL document CHEMBL1151366, “Potential Anticancer Agents. XVIII. Constituents of Amyris pinnata” (1981).
Converted amounts (≈) assume the structure as drawn. The source made the active and inactive calls. The calls are words filed in the database; no cut-off is given here.

Assays:
[1] = system: B16; assay: In vivo antitumor activity against mouse B16 cells at 1.5 to 12.0 mg/kg relative to control; assay type: functional, organism-based
[2] = Cytotoxicity against human 9KB cells; assay type: functional; settings: read-out: ED50 (the source's name)
[3] = system: P388; assay: In vivo antitumor activity against mouse P388 cells at 7.5 mg/kg relative to control; assay type: functional

Structure (SMILES) | Activity [1] | EC50 [2] [mg/L] | T/C [3] [%]
COc1cc([C@@H]2c3cc4c(cc3C[C@H]3COC(=O)[C@@H]32)OCO4)cc2c1OCO2 [AUSTROBAILIGNAN 1] | inactive | 0.027 (≈ 0.0706 µM) | 125
CC[C@H](CC[C@@H](C)[C@H]1CC[C@H]2[C@@H]3CC=C4C[C@@H](O)CC[C@]4(C)[C@H]3CC[C@]12C)C(C)C [BETA-SITOSTEROL] | – | 22 (≈ 53 µM) | –
CC(C)(O)[C@H](O)COc1c2occc2cc2ccc(=O)oc12 [HERACLENOL] | – | > 100 | –
CC(C)=CCOc1c2occc2cc2ccc(=O)oc12 [PENTOSALEN] | – | 33 (≈ 122 µM) | –
COc1c2ccoc2c(OCC=C(C)C)c2oc(=O)ccc12 [PHELLOPTERIN] | – | 7.2 (≈ 24 µM) | –
O=C1OC[C@H](Cc2ccc3c(c2)OCO3)/C1=C\c1ccc2c(c1)OCO2 [SAVININ] | – | 22 (≈ 62.4 µM) | –
COc1cc2ccc(=O)oc2cc1O [SCOPOLETIN] | – | 2.9 (≈ 15.1 µM) | –
CC1(C)C=Cc2c(ccc3ccc(=O)oc23)O1 [SESALIN] | – | 31 (≈ 136 µM) | –
O=C1OCC(C(O)c2ccc3c(c2)OCO3)C1Cc1ccc2c(c1)OCO2 (stereo unspecified) [SVENTENIN] | – | 23 (≈ 62.1 µM) | –
